Measured values as given in patent publication US10683559B2, “G-protein coupled receptor (GPCR)-based biosensors and uses thereof” (Georgia Tech Research Corporation, priority 2014, dated 2020).
Values belong to the compound of their own block, whether it stands above or below them.

What was measured:
[1] = biological target: T1, GPR40 (Homo sapiens, UniProt O14842); test: GPR40-based yeast sensor, GFP fluorescence by flow cytometry; format: cell-based
T1 construct: expressed in transfected cells; host or cells: S. cerevisiae W303 Δfar1, Δsst2, Δste2 (PPY140) or additionally Δste12 (PPY161), plasmid pESC-His3-PTEF1-GPR40 (pKM469 and derivatives)
Text: (§1) The GPCRs tested were the olfactory receptor OR1G1 (Sanz, G., Schlegel, C., Pernollet, J. C., and Briand, L. (2005) Comparison of odorant specificity of two human olfactory receptors from different phylogenetic classes and evidence for antagonism, Chemical Senses 30, 69-80) and the free fatty acid receptor GPR40 (Itoh, Y., et al. (2003) Free fatty acids regulate insulin secretion from pancreatic beta cells through GPR40, Nature 422, 173-176). First, OR1G1 and GPR40 sensing of even, medium-chain saturated fatty acids (C8-C16) using PFIG1-GFP(m) was tested. A reliable signal after fatty acid addition was not observed (FIGS. 23 and 24). Hypothesizing that the large standard deviation of PFIG1-GFP(m) contributed to the inability to detect medium-chain fatty acids, PFIG1-GFP(s) was tested as the reporter plasmid. Using PFIG1-GFP(s) enabled the OR1G1 based-sensor to detect C8, C10 and C12 fatty acids with 13-, 17-, and 13-fold increases in signal after activation, respectively (FIGS. 8-9). Using PFIG1-GFP(s) also enabled the GPR40 based-sensor to detect C8, C10 and C12 saturated fatty acids, with 14-, 25-, and 16-fold increases in signal after activation, respectively (FIGS. 10-11). It was also explored whether the OR1G1-based sensor signal could be improved by expressing the OR1G1 from a single-copy (s) rather than a multi-copy (m) plasmid.
(§2) To engineer a system in which medium-chain fatty acid sensing would trigger only GFP transcription, Ste12 was replaced in the yeast strain carrying deletions of Ste2, Sst2, and Far1 with one of two synthetic transcription factors (STFs): 1) STF1, which is composed of the Ste12 phosphorylation domain and the Gal4 activation and DNA binding domains (Pi, H. W., Chien, C. T., and Fields, S. (1997) Transcriptional activation upon pheromone stimulation mediated by a small domain of Saccharomyces cerevisiae Ste12p, Mol Cell Biol 17, 6410-6418) and 2) STF2, which is composed of the Ste12 phosphorylation domain, the synthetic B42 activation domain and the bacterial LexA DNA binding domain (Golemis, E. A., and Brent, R. (1992) Fused Protein Domains Inhibit DNA-Binding by Lexa, Mol Cell Biol 12, 3006-3014 and Peralta-Yahya, P., Carter, B. T., Lin, H. N., Tao, H. Y., and Comish, V. W. (2008) High-Throughput Selection for Cellulase Catalysts Using Chemical Complementation, J Am Chem Soc 130, 17446-17452). STF1 can activate transcription of GFP placed under control of a synthetic minimal promoter carrying five Gal4 DNA binding sites (PGal4(5×)). STF2 activates transcription of GFP placed under control of a synthetic minimal promoter carrying four lexA DNA binding sites (PLexA(4×)) (FIGS. 17 and 18).
(§3) For the Ste2/α-factor sensor, strains PPY638, PPY639, PPY640, PPY641 were grown overnight in synthetic complete media with 2% glucose and lacking leucine (SD glu (L^−)). The next day, the cells were used to inoculate a 20 mL of SD glu (L^−) to an OD600=0.06 and incubated for 18 hrs at 30° C. (150 r.p.m.). The cells were centrifuged, re-suspended in 5 mL SD glu (L^−), used to innoculate 5 ml of fresh SD glu (L^−) to OD600=0.6. α-factor (0-100 nM, Zymo Y1001) was added to the medium and incubated for 4 hrs at 30° C. (150 r.p.m.) before reading for cell fluorescence using a flow cytometer. For the OR1G1- and GPR40-based sensors using Ste12/PFIG1-GFP response unit, strains PPY643, PPY644 were grown overnight in SD glu and lacking histidine and leucine (SD glu (HL^−)). The next day, the cells were used to inoculate a 20 mL of SD glu (HL^−) to an OD600=0.06 and incubated for 18 hrs at […] (150 r.p.m.). The cells were centrifuged, re-suspended in 2 ml SD glu (HL^−) to OD600=0.6. C8, C10, C12, C14 and C16 saturated fatty acids (0-800 μM) were added to the medium and incubated for 4 hrs at 30° C. (150 r.p.m.) before reading for cell fluorescence using a flow cytometer. […]

[2] = biological target: T2, OR1G1 (Homo sapiens, UniProt P47890); test: OR1G1-based yeast sensor, GFP fluorescence by flow cytometry; format: cell-based; details: for detection by the OR1G1-sensor, acid added independently: 250 μM, each acid alone (FIG. 27); for detection by the OR1G1-sensor in a mixture of fatty acids: mixture of C10, C14 and C16 acids (FIG. 27)
T2 construct: expressed in transfected cells; host or cells: S. cerevisiae W303 Δfar1, Δsst2, Δste2 (PPY140) or additionally Δste12 (PPY161), plasmid pESC-His3-PTEF1-OR1G1 (pKM269 and derivatives)
T2 sequence (P47890 with tags, fused parts or gaps limits assumed): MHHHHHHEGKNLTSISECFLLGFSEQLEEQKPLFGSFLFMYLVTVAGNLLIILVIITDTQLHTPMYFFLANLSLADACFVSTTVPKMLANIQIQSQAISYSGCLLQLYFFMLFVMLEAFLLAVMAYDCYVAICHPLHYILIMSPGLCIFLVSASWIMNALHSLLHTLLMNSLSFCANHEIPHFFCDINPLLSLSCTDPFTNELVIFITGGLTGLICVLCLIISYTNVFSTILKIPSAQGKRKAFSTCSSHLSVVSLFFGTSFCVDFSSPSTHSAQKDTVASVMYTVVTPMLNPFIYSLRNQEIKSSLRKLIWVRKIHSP
Text: as §1, §2, §3

[3] = Ste12/PFIG1-GFP(s), maximum at C8 800 μM, C10 800 μM, C12 250 μM
[4] = W303 Δfar1, Δsst2, Δste2, reporter PFig1-GFP(s), TF Ste12
[5] = Ste12/PFIG1-GFP(s), maximum at C8 800 μM, C10 250 μM, C12 500 μM
[6] = C8, C10, C12 fatty aldehydes and alcohols, C10 methyl- and ethyl-esters, dose response
[7] = 0 or 500 μM decanoic acid, PFig1-GFP(s), compared with no GPCR
[8] = W303 Δfar1, Δsst2, Δste2, Δste12, 500 μM decanoic acid, PFig1-GFP(s)
[9] = W303 Δfar1, Δsst2, Δste2, Δste12, reporter PGal4(5x)-GFP(m), TF STF1
[10] = W303 Δfar1, Δsst2, Δste2, Δste12, reporter PLexA(4x)-GFP(m), TF STF2
[11] = STF1/PGal4(5×)-GFP response unit, 800 μM decanoic acid

T1 sequence (O14842 whole entry): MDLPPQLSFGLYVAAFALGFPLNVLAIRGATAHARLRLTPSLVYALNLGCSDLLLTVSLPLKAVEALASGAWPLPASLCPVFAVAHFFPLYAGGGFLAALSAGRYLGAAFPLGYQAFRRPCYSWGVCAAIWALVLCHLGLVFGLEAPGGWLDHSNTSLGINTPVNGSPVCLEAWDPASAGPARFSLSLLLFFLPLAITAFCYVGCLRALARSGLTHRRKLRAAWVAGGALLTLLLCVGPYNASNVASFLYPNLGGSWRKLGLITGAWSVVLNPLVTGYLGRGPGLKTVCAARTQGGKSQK

SMILES: CCCCCCCC(=O)O [C8 acid]
increase in signal after activation [1, 3]: 14 fold | Dynamic range [1, 4]: 14 | GFP max [1, 4]: 197 AU | Linear range [1, 4]: 36 to 250 µM | increase in signal after activation [2, 5]: 13 fold | Dynamic range [2, 4]: 13 | GFP max [2, 4]: 239 AU | Linear range [2, 4]: 19 to 250 µM

SMILES: CCCCCCCC=O [C8 aldehyde]
increase in signal after activation (specificity) [1, 6]: unable to detect

SMILES: CCCCCCCCCC(=O)O [C10 acid, decanoic acid]
GFP fluorescence in presence of GPCR [1, 7]: increase in GFP fluorescence | increase in signal after activation ([1]; STF1/PGal4(5×)-GFP response unit, 500 μM decanoic acid): 28 fold | increase in GFP expression ([1]; STF2/PLexA(4×) response unit, 500 μM C10 acid (FIG. 22)): 4 fold | increase in signal after activation [1, 3]: 25 fold | GFP fluorescence in the absence of Ste12 [1, 8]: no observable increase in GFP fluorescence | Dynamic range [1, 9]: 28 | GFP max [1, 9]: 573 AU | Linear range [1, 9]: 47 to 250 µM | Dynamic range [1, 10]: 4 | GFP max [1, 10]: 501 AU | Linear range [1, 10]: 4 to 100 µM | Dynamic range [1, 4]: 25 | GFP max [1, 4]: 339 AU | Linear range [1, 4]: 36 to 100 µM | flow cytometry histogram of the biosensor strain ([1]; incubated with compound vs no compound (FIGS. 30A-30E)): shift of the population | GFP fluorescence in presence of GPCR [2, 7]: increase in GFP fluorescence | detection by the OR1G1-sensor, acid added independently [2]: able to detect | linear range reaching to ([2]; STF1/PGal4(5×)-GFP response unit): 500 µM | improvement in signal after activation over the Ste12/PFIG1-GFP(s) response unit [2, 11]: ~200% | increase in signal after activation [2, 11]: 30 fold | increase in signal after activation ([2]; STF2/PLexA(4×)-GFP response unit, 800 μM decanoic acid): 7 fold | linear range plateaued at ([2]; Ste12/PFIG1-GFP(s) response unit): 250 µM | increase in signal after activation [2, 5]: 17 fold | GFP fluorescence in the absence of Ste12 [2, 8]: no observable increase in GFP fluorescence | Dynamic range [2, 9]: 30 | GFP max [2, 9]: 1126 AU | Linear range [2, 9]: 110 to 500 µM | Dynamic range [2, 10]: 7 | GFP max [2, 10]: 405 AU | Linear range [2, 10]: 2 to 100 µM | Dynamic range [2, 4]: 17 | GFP max [2, 4]: 308 AU | Linear range [2, 4]: 34 to 250 µM | increase in signal after activation with chromosomal GPA1 compared with Golf and GPA1-Golf ([2]; above 250 μM decanoic acid): greatest increase in signal after activation | detection by the OR1G1-sensor in a mixture of fatty acids [2]: not able to detect | detection by the OR1G1-sensor in a mixture of fatty acids ([2]; listed as decanoic acid): inability

SMILES: CCCCCCCCCC=O [C10 aldehyde]
increase in signal after activation ([1]; at 125 μM): 3 fold | increase in signal after activation (specificity) [2, 6]: > 3 fold

Now from value to compound:

increase in signal after activation [1, 3]: 16 fold | Dynamic range [1, 4]: 16 | GFP max [1, 4]: 222 AU | Linear range [1, 4]: 2 to 250 µM | increase in signal after activation [2, 5]: 13 fold | Dynamic range [2, 4]: 13 | GFP max [2, 4]: 233 AU | Linear range [2, 4]: 1 to 250 µM
SMILES: CCCCCCCCCCCC(=O)O [C12 acid]

increase in signal after activation ([1]; at 250 μM): 3 fold
SMILES: CCCCCCCCCCCC=O [C12 aldehyde]

detection by the OR1G1-sensor, acid added independently [2]: able to detect | detection by the OR1G1-sensor in a mixture of fatty acids [2]: not able to detect
SMILES: CCCCCCCCCCCCCC(=O)O [C14 acid]

detection by the OR1G1-sensor, acid added independently [2]: able to detect | detection by the OR1G1-sensor in a mixture of fatty acids [2]: not able to detect
SMILES: CCCCCCCCCCCCCCCC(=O)O [C16 acid]
